Results: patent publication US4345938A, “Herbicidal 2-haloacetanilides” (Monsanto Company, priority 1980, dated 1982)
Read-outs that look alike come from different tables or passages of the source.

Legend:
Format in all cases: in vivo
Cyperus serotinus = test: Field transplant rice test, applied 0 DAT, CS; details: 0 h, read-out: Percent Inhibition, CS; for inhibition at 375 g/ha: 0.375 Kg/Ha; for inhibition at 750 g/ha: 0.75 Kg/Ha; for inhibition at 1500 g/ha: 1.5 Kg/Ha; for inhibition at 3000 g/ha: 3.0 Kg/Ha
Experimental: (§1) The test data in Table III for all compounds was obtained under identical test conditions. The weeds used in the tests herein have the following abbreviations in the tables: Echinochloa crus-galli (EC), Monochloria vaginalis (MV), Cyperus Serotinus (CS), Eleocharis Kuroguwai (EK) and Sagittaria trifolia (ST).
(§2) In further comparative tests, a preferred compound of this invention (Example 1) was tested in the field with prior art Compounds A-D. These tests were conducted under conditions reflecting herbicide application times generally favorable to all herbicides in the test. The timing of application of herbicides to transplant rice is very important, whether, as in some instances, prior to transplanting the rice; in other instances, at the time of transplanting or else after transplanting. Application times are conventionally referred to as "days before transplant" (DBT) or "days after transplant" ("DAT"). The field test data in Table IV was obtained from a test in which the herbicides were applied at the time of transplant, i.e., "0 DAT", with observations being made weekly up to six weeks after transplant ("WAT") beginning at two weeks after transplant; for illustrative and representative purposes, only the early, middle and late period observations, i.e., 2 WAT, 4 WAT and 6 WAT, are shown in Table IV. The data in Table IV is for rates of application common to all herbicides in the test, i.e., from 3.0 kg/ha (2.67 lb/A) down to 0.375 kg/ha (0.34 lb/A). All herbicides were applied at their actual or expected use rates, i.e., as granules containing 2.5% by weight herbicide for the compound of Example 1, Compounds B, C and D and 5.0% by weight for Compound A.

Sagittaria trifolia = test: Field transplant rice test, applied 9 DAT, ST; details: 216 h, read-out: Percent Inhibition, ST; for inhibition at 375 g/ha: 0.375 Kg/Ha; for inhibition at 750 g/ha: 0.75 Kg/Ha; for inhibition at 1500 g/ha: 1.5 Kg/Ha; for inhibition at 3000 g/ha: 3.0 Kg/Ha
Experimental: as §1, §2
(§3) In Table V are presented field data showing the relative performance of the compound of Example 1 and Compounds A-D applied 9 DAT, with observations being made weekly from 3 WAT to 7 WAT; again, for illustrative and representative purposes, only the early, middle and late period observations are reported in Table V, the herbicide rates and concentrations of active ingredients the same as is shown in Table IV.

Rice = test: Field transplant rice test, applied 9 DAT, rice injury; details: Oryza sativa, 216 h, read-out: Percent Inhibition, Rice; for inhibition at 375 g/ha: 0.375 Kg/Ha; for inhibition at 750 g/ha: 0.75 Kg/Ha; for inhibition at 1500 g/ha: 1.5 Kg/Ha; for inhibition at 3000 g/ha: 3.0 Kg/Ha
Experimental: as §2, §3

Monochoria vaginalis = test: Field transplant rice test, applied 0 DAT, MV; details: Pontederia vaginalis, 0 h, read-out: Percent Inhibition, MV; for inhibition at 375 g/ha: 0.375 Kg/Ha; for inhibition at 750 g/ha: 0.75 Kg/Ha; for inhibition at 1500 g/ha: 1.5 Kg/Ha; for inhibition at 3000 g/ha: 3.0 Kg/Ha
Experimental: as §1, §2

Echinochloa crus-galli = test: Field transplant rice test, applied 0 DAT, EC; details: 0 h, read-out: Percent Inhibition, EC; for inhibition at 375 g/ha: 0.375 Kg/Ha; for inhibition at 750 g/ha: 0.75 Kg/Ha; for inhibition at 1500 g/ha: 1.5 Kg/Ha; for inhibition at 3000 g/ha: 3.0 Kg/Ha
Experimental: as §1, §2

SMILES: CCCOCCN(C(=O)CCl)c1c(CC)cccc1CC [Compound D, 2',6'-diethyl-N-(n-propoxyethyl)-2-chloroacetanilide]
- inhibition at 375 g/ha (Cyperus serotinus; 2 WAT): 82%
- inhibition at 375 g/ha (Cyperus serotinus; 4 WAT): 65%
- inhibition at 375 g/ha (Cyperus serotinus; 6 WAT): 33%
- inhibition at 750 g/ha (Cyperus serotinus; 2 WAT): 73%
- inhibition at 750 g/ha (Cyperus serotinus; 4 WAT): 77%
- inhibition at 750 g/ha (Cyperus serotinus; 6 WAT): 70%
- inhibition at 1500 g/ha (Cyperus serotinus; 2 WAT): 92%
- inhibition at 1500 g/ha (Cyperus serotinus; 4 WAT): 93%
- inhibition at 1500 g/ha (Cyperus serotinus; 6 WAT): 93%
- inhibition at 3000 g/ha (Cyperus serotinus; 2 WAT): 67%
- inhibition at 3000 g/ha (Cyperus serotinus; 4 WAT): 65%
- inhibition at 3000 g/ha (Cyperus serotinus; 6 WAT): 60%
- inhibition at 375 g/ha (Sagittaria trifolia; 3 WAT): 45%
- inhibition at 375 g/ha (Sagittaria trifolia; 5 WAT): 12%
- inhibition at 375 g/ha (Sagittaria trifolia; 7 WAT): 7%
- inhibition at 750 g/ha (Sagittaria trifolia; 3 WAT): 42%
- inhibition at 750 g/ha (Sagittaria trifolia; 5 WAT): 25%
- inhibition at 750 g/ha (Sagittaria trifolia; 7 WAT): 18%
- inhibition at 1500 g/ha (Sagittaria trifolia; 3 WAT): 43%
- inhibition at 1500 g/ha (Sagittaria trifolia; 5 WAT): 25%
- inhibition at 1500 g/ha (Sagittaria trifolia; 7 WAT): 22%
- inhibition at 3000 g/ha (Sagittaria trifolia; 3 WAT): 73%
- inhibition at 3000 g/ha (Sagittaria trifolia; 5 WAT): 60%
- inhibition at 3000 g/ha (Sagittaria trifolia; 7 WAT): 52%
- inhibition at 375 g/ha (Rice; 3 WAT): 8%
- inhibition at 375 g/ha (Rice; 5 WAT): 7%
- inhibition at 375 g/ha (Rice; 7 WAT): 7%
- inhibition at 750 g/ha (Rice; 3 WAT): 10%
- inhibition at 750 g/ha (Rice; 5 WAT): 5%
- inhibition at 750 g/ha (Rice; 7 WAT): 2%
- inhibition at 1500 g/ha (Rice; 3 WAT): 10%
- inhibition at 1500 g/ha (Rice; 5 WAT): 5%
- inhibition at 1500 g/ha (Rice; 7 WAT): 7%
- inhibition at 3000 g/ha (Rice; 3 WAT): 15%
- inhibition at 3000 g/ha (Rice; 5 WAT): 5%
- inhibition at 3000 g/ha (Rice; 7 WAT): 8%
- inhibition at 375 g/ha (Monochoria vaginalis; 2 WAT): 90%
- inhibition at 375 g/ha (Monochoria vaginalis; 4 WAT): 95%
- inhibition at 375 g/ha (Monochoria vaginalis; 6 WAT): 83%
- inhibition at 750 g/ha (Monochoria vaginalis; 2 WAT): 100%
- inhibition at 750 g/ha (Monochoria vaginalis; 4 WAT): 99%
- inhibition at 750 g/ha (Monochoria vaginalis; 6 WAT): 100%
- inhibition at 1500 g/ha (Monochoria vaginalis; 2 WAT): 98%
- inhibition at 1500 g/ha (Monochoria vaginalis; 4 WAT): 100%
- inhibition at 1500 g/ha (Monochoria vaginalis; 6 WAT): 100%
- inhibition at 3000 g/ha (Monochoria vaginalis; 2 WAT): 100%
- inhibition at 3000 g/ha (Monochoria vaginalis; 4 WAT): 98%
- inhibition at 3000 g/ha (Monochoria vaginalis; 6 WAT): 98%
- inhibition at 375 g/ha (Echinochloa crus-galli; 2 WAT): 73%
- inhibition at 375 g/ha (Echinochloa crus-galli; 4 WAT): 88%
- inhibition at 375 g/ha (Echinochloa crus-galli; 6 WAT): 83%
- inhibition at 750 g/ha (Echinochloa crus-galli; 2 WAT): 90%
- inhibition at 750 g/ha (Echinochloa crus-galli; 4 WAT): 100%
- inhibition at 750 g/ha (Echinochloa crus-galli; 6 WAT): 100%
- inhibition at 1500 g/ha (Echinochloa crus-galli; 2 WAT): 97%
- inhibition at 1500 g/ha (Echinochloa crus-galli; 4 WAT): 98%
- inhibition at 1500 g/ha (Echinochloa crus-galli; 6 WAT): 93%
- inhibition at 3000 g/ha (Echinochloa crus-galli; 2 WAT): 99%
- inhibition at 3000 g/ha (Echinochloa crus-galli; 4 WAT): 100%
- inhibition at 3000 g/ha (Echinochloa crus-galli; 6 WAT): 100%
